Source: patent US11814356B1, “Salt of cabozantinib” (Apotex Inc., priority 2023, dated 2023)

How the values were obtained:
[1] = PXRD form stability of uncapped samples in a stability chamber; assay type: physicochemical
Experimental: Cabozantinib acesulfamate Form APO-I can be characterized by a PXRD diffractogram comprising, among other peaks, characteristic peaks, expressed in degrees 2θ (±0.2°), at 9.5°, 11.2° and 19.7°. Preferably, the PXRD diffractogram further comprises at least three peaks, expressed in degrees 2θ (±0.2°), selected from the group consisting of 9.1°, 10.2°, 12.7°, 15.9°, 17.4°, and 18.1°. More preferably, the PXRD diffractogram further comprises peaks, expressed in degrees 2θ (±0.2°), at 9.1°, 10.2°, 12.7°, 15.9°, 17.4°, and 18.1°.
PXRD diffractograms were recorded on a Bruker D8 Discover powder X-ray diffractometer (Bruker AXS LLC, Karlsruhe, Germany). The sample holder was oscillated along x and y axes during the measurement. The generator was a Incoatec Microfocus Source (IμS) Cu tube (λ=1.54060 Å) with a voltage of 50 kV and current of 1.00 mA, using a divergence slit of 0.1 mm and collimator of 2.0 mm. For each sample, one frame was collected using a still scan with a PILATUS3 R 100K-A detector at the distance of 294.2 mm from the sample. Raw data were evaluated using the program DIFFRAC.EVA (Bruker AXS LLC, Karlsruhe, Germany).

[2] = pH-dependent; at a pH>3; cited from earlier work
[3] = cited from earlier work

| SMILES | form stability ([1]; high temperature and high humidity) | change in the crystalline form (PXRD) ([1]; uncapped samples, 40° C./75% RH stability chamber, at least 4 weeks) | aqueous solubility [2] | permeability [3] |
| --- | --- | --- | --- | --- |
| CC1=CC(=O)NS(=O)(=O)O1.COc1cc2nccc(Oc3ccc(NC(=O)C4(C(=O)Nc5ccc(F)cc5)CC4)cc3)c2cc1OC [cabozantinib acesulfamate Form APO-I, Cabozantinib Acesulfamate Form APO-I] | form stability | no change in the crystalline form occurred |  |  |
| COc1cc2nccc(Oc3ccc(NC(=O)C4(C(=O)Nc5ccc(F)cc5)CC4)cc3)c2cc1OC [cabozantinib, N-(4-(6,7-dimethoxyquinolin-4-yloxy)phenyl)-N′-(4-fluorophenyl)cyclopropane-1,1-dicarboxamide] |  |  | very low solubility | high permeability |
